Source: patent EP0603031A2, “Antiviral antibiotic BU-4724V and preparation thereof” (Bristol-Myers Squibb Company, priority 1992, dated 1994)
Read-outs that look alike come from different tables or passages of the source. Positions of bridges follow the written chain, without caps; N, C: chain ends. Residues, ends and D or L forms follow the SMILES beside them.

Columns and labels:
[1] = tested on: herpes simplex virus type 1 (HSV-1) using the KOS strain; assay: Anti-HSV assay, inhibition of virus-induced cytopathic effect in Vero cells; type: cell-based; details: HSV-1 KOS, 72 hours at 37°C
Procedure: (§1) The in vitro antiviral activity of BU-4724V was assessed against the herpes simplex virus type 1 (HSV-1) using the KOS strain. The assay was done according to the reported protocol of C. McLaren et al. in Antiviral Research, 3, 223-234, (1986) with minor modification. Briefly, 50 µl of Eagle's MEM medium containing BU-4724V and then 200 µl of the Vero cell suspension (2 X 10⁴ cells/200 µl) were added to a well of a 96-well microtiter plate. To the well, 50µl of medium containing approximately 30 times of the 50% tissue culture infectious dose (50% TCID) of virus was added. In a parallel experiment, the same set of cells without virus infection was prepared, which was for the determination of cytotoxicity of the sample. After 72 hours incubation at 37°C, the inhibition degree of virus-induced cytopathic effect and cytotoxicity by the sample were determined, respectively. The ID₅₀ is expressed as the concentration of a compound showing 50% growth inhibition of the cytopathic effect and the TD₅₀ as the concentration of a compound showing 50% growth inhibition of the cells in the absence of virus. Acyclovir was used as the reference compound for anti-HSV activity in the assay.

[2] = tested on: Vero cell; assay: Cytotoxicity in Vero cells without virus infection; type: cell-based; details: Vero cells in the absence of virus, 72 hours at 37°C
Procedure: as §1

[3] = tested on: HIV-1 RF; assay: XTT anti-HIV assay in CEM-SS cells; type: cell-based, human immunodeficiency virus; details: HIV-1 RF strain, read-out: IC₅₀
Procedure: (§2) The antiviral effect is expressed as the inhibitory concentration of a compound which reduces the number of viruses of the infected culture to 50% of that of the drug - untreated, control culture (IC₅₀). The cytotoxicity is expressed as the concentration of a compound which yields 50% of the number of viable cells of the untreated control cultures (IC₅₀). In this assay, 2',3'-Dideoxyinosine (ddI, Videx®) was also tested for anti-HIV activity.

[4] = tested on: HIV-1 IIIb; assay: XTT anti-HIV assay in CEM-SS cells; type: cell-based, human immunodeficiency virus; details: HIV-1 IIIb strain, read-out: IC₅₀
Procedure: as §2

[5] = tested on: HIV-2 CBL-20; assay: XTT anti-HIV assay in CEM-SS cells; type: cell-based, human immunodeficiency virus; details: HIV-2 CBL-20 strain, read-out: IC₅₀
Excerpt: The CEM-SS cells were obtained from Peter Nara, AIDS Research and Reference Program, Division of AIDS, NIAID, NIH.
as §2

[6] = Cytotoxicity in CEM-SS cells (XTT assay); type: cell-based; details: human, 50% of viable cells of untreated control, read-out: cytotoxicity IC₅₀
Procedure: as §2

[7] = tested on: CEM-SS cells; assay: Cytotoxicity in CEM-SS cells (XTT assay); type: cell-based; details: result in words
Procedure: as §2

[8] = tested on: S. typhi 901; type: cell-based; details: 901, 18 h, pH 7
[9] = tested on: human immunodeficiency virus; assay: XTT anti-HIV assay in CEM-SS cells (strain not stated); type: cell-based; details: Human immunodeficiency virus 1, anti-HIV activity, read-out: IC₅₀
[10] = tested on: CEM-SS cells
Procedure: as §2

Work on `Nc1nc2c(ncn2COCCO)c(=O)[nH]1` [Acyclovir] yielded an ID₅₀ [1] of 0.28 µg/mL and a TD₅₀ [2] greater than 100 µg/mL.

With `CC[C@H](C)[C@@H]1NC(=O)[C@H](C)NC(=O)[C@H](Cc2ccc(O)cc2)NC(=O)CNC(=O)[C@@H]2CSSC[C@@H]3NC(=O)C[C@H](NC(=O)[C@H](CC(N)=O)NC(=O)[C@H](CSSC[C@@H](C(=O)N[C@@H](Cc4ccccc4)C(=O)N[C@@H](Cc4c[nH]c5ccccc45)C(=O)O)NC(=O)[C@H](C(C)C)NC1=O)NC(=O)[C@H](CO)NC(=O)CNC(=O)[C@H](C(C)C)NC(=O)CNC(=O)[C@H](CC(C)C)NC3=O)C(=O)N[C@@H](Cc1ccccc1)C(=O)N[C@@H](C)C(=O)NCC(=O)N2` [BU-4724V] (CLGVGSCNDFAGCGYAIVCFW-OH; disulfide 1-13, 7-19; lactam N-9; C-terminus assumed) the ID₅₀ [1] was 48 µg/mL, the TD₅₀ [2] was greater than 100 µg/mL and the IC50 [3] was 90 to 600 nM. The IC50 [4] was 460 nM, the IC50 [5] was 230 nM and the CC50 [6] was roughly 150 µM. For the same compound, the cytotoxicity [7] was “very weak cytotoxicity”, the MIC [8] was greater than 100 µg/mL and the solubility (in alkaline water) was “slightly soluble”. For the same compound, the solubility (in dimethyl sulfoxide, dimethylformamide, methanol and ethanol) was “soluble” and the solubility (in water, ethyl acetate, chloroform, benzene, n-hexane and petroleum ether) was “insoluble”.

In the case of `O=c1[nH]cnc2c1ncn2[C@H]1CC[C@@H](CO)O1` [ddI, 2',3'-Dideoxyinosine], the IC50 [9] is reported as 1000 to 2000 nM and the cytotoxicity [10] is reported as “very weak cytotoxicity”.
